From patent US20070219767A1, “ATOMIC COORDINATES OF ALBUMIN DRUG COMPLEXES AND METHOD OF USE OF PHARMACEUTICAL DEVELOPMENT” (priority 2003, published 2007)
Entries after “also recorded” stand apart in the source; their conditions may differ. Like-named read-outs stand apart in the source and are kept apart here.

Legend:
[1] = target: T1, human serum albumin (Homo sapiens, UniProt P02768); assay: X-ray crystallography of human serum albumin/drug complexes: binding location; design: Domain I (1 through 192); Domain II (193 through 395);Domain III (396 THROUGH 585); conditions: for Albumin Binding Location: Table I, Phase I, subdomain of HSA where the drug is found in the crystal complex
Excerpt: This information was derived from crystallization of the protein/ligand to create a protein/ligand complex and determining the atomic structure of the resulting complex by x-ray diffraction. The ligand may be any ligand capable of binding to the human serum albumin protein, and is preferably a ligand that binds to one of the binding sites described herein.
One method of obtaining information regarding the structural; characteristics of the albumin binding regions is through protein crystallization processes.
By applying standard crystallization protocols to the above described crystallizable compositions, crystals of the human serum albumin complex may be obtained. This, an even further aspect of this invention relates to a method of preparing human serum albumin complex-containing crystals. The method comprises the steps of • (a) obtaining a crystallizable composition comprising a human serum albumin protein, divalent cations, and a ligand capable of binding to the protein, and • (b) subjecting the composition of step (a) to conditions which promote crystallization.
The “active site binding pockets” or “active site” of human serum albumin refers to one of several areas determined experimentally on the human serum albumin protein surface where substrates bind.

[2] = target: T1, human serum albumin; conditions: prior knowledge on non-drugs such as gases; cited from earlier work
[3] = Table II, Phase II, refined coordinates, listed residues within 5 Å of bound ligand

T1 sequence (P02768 25-609): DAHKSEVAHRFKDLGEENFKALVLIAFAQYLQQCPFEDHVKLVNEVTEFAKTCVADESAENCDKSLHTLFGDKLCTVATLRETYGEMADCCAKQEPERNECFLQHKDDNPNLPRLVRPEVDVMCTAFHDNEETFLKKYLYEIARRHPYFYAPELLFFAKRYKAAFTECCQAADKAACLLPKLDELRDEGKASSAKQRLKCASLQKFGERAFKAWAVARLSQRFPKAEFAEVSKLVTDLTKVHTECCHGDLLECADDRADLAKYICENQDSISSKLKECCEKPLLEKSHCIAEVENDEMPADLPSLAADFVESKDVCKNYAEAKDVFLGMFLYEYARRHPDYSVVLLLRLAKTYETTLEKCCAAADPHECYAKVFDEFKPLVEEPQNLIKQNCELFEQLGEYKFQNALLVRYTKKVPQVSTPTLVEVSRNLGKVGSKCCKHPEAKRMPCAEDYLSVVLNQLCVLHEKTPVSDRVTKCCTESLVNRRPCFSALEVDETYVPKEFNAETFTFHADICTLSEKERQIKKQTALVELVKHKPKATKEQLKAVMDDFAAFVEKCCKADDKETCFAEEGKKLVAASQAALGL

Compound | Binding site of the Drug-Albumin Complex (site heading the list of contacting residues) [1, 3] | also measured
Cc1cccc(Nc2ccccc2C(=O)O)c1C [Mefenamic Acid] | Site IIIA, E383, P384, L387, N391, C392, F403, L407, R410, Y411, | 
CC[C@@]1(O)C(=O)OCc2c1cc1n(c2=O)Cc2cc3ccccc3nc2-1 [Camptothecin] | Site IB, L115, V116, R117, M123, Y138, I142, H146, F149, L154, | 
C[C@]12C=CC(=O)C=C1CC[C@@H]1[C@@H]2C(=O)C[C@@]2(C)[C@H]1CC[C@]2(O)C(=O)CO [Prednisone] |  | Albumin Binding Location [1]: IIA
CC(CN1c2ccccc2Sc2ccccc21)N(C)C (stereo not shown) [Promethazine] | Site IIB, D308, F309, N318, E321, A322, V325, F326, N329 | 
CN1C(C(=O)Nc2ccccn2)=C(O)c2ccccc2S1(=O)=O [Piroxicam] | Site IIA, K195, Q196, L198, K199, F211, W214, A215, R218, L219, | 
CCc1cccc2c3c([nH]c12)[C@](CC)(CC(=O)O)OCC3 [S-Etodolac] | Site IIIA, P384, L387, I388, N391, F403, L407, R410, Y411, K414, | 
FC(F)(F)C(Cl)Br (stereo not shown) [halothane] |  | HSA site with binding affinity, previously known [2]: IIA-IIB
CC(=O)Oc1ccccc1C(=O)O [Aspirin] | Site IIIB, F509, I513, R521, K524, K525, A528, M548, F551, A552, | 
O=C(c1ccccc1)c1ccc2n1CCC2C(=O)O (stereo not shown) [Ketorolac] | Site IB, L115, R117, Y138, I142, H146, F157, Y161, L182, D183,; also recorded: Site IIIA, L387, I388, N391, C392, F403, L407, R410, Y411, K414, | 
CC1(C)S[C@@H]2[C@H](NC(=O)COc3ccccc3)C(=O)N2[C@H]1C(=O)O [Penicillin V] |  | Albumin Binding Location [1]: IIA
O=C(O)CCc1nc(-c2ccccc2)c(-c2ccccc2)o1 [Oxaprozin] | Site IIIA, P384, L387, I388, N391, C392, F403, L407, R410, Y411, | 
COc1ccc(Cl)cc1C(=O)NCCc1ccc(S(=O)(=O)NC(=O)NC2CCCCC2)cc1 [Glyburide] | Site IB, L115, V116, R117, P118, M123, A126, F134, K137, Y138, | 
CN1C(CCl)Nc2cc(Cl)c(S(N)(=O)=O)cc2S1(=O)=O (stereo not shown) [Methayclothiazide] |  | Albumin Binding Location [1]: IIA-IIB
CC[C@@]1(O)C(=O)OCc2c1cc1n(c2=O)Cc2cc3c([N+](=O)[O-])cccc3nc2-1 [9 Nitro-Camptothecin] | Site IB, L115, V116, R117, Y138, I142, H146, F149, L154, F157, | 
CC(C(=O)O)c1ccc(-c2ccccc2)c(F)c1 (stereo not shown) [Flurbiprofen] | Site IIIA, L387, I388, N391, C392, F395, F403, L407, R410, Y411, | 
O=C(c1ccccc1)c1ccc2n1CC[C@@H]2C(=O)O [S-Ketorolac] | Site IIIB, F507, F509, I513, L516, R521, K524, K525, A528, L532, | 
CCCCC(=O)O[C@H]1CC[C@H]2[C@@H]3CCc4cc(O)ccc4[C@H]3CC[C@]12C [Estradiol Valerate] |  | Albumin Binding Location [1]: IIA
Cc1nc2n(c(=O)c1CCN1CCC(c3noc4cc(F)ccc34)CC1)CCCC2 [Risperidone] | Site IIIA, L387, I388, N391, C392, F403, L407, R410, Y411, K414, | 
CCC(=O)O[C@](Cc1ccccc1)(c1ccccc1)[C@H](C)CN(C)C [Propoxyphene] | Site IIIB, F502, F507, F509, A528, E531, L532, H535, V547, D550, | 
CC1(C)S[C@@H]2[C@H](NC(=O)Cc3ccccc3)C(=O)N2[C@H]1C(=O)O [Penecillin G] | Site IIA, Y150, K195, K199, F211, W214, A215, R218, L219, R222, | 
CC[C@H](C)C(=O)O[C@H]1C[C@@H](C)C=C2C=C[C@H](C)[C@H](CC[C@@H]3C[C@@H](O)CC(=O)O3)[C@H]21 [Lovastatin] |  | Albumin Binding Location [1]: IIA
CCc1cccc2c3c([nH]c12)C(CC)(CC(=O)O)OCC3 (stereo not shown) [Etodolac] | Site IB, L115, Y138, E141, I142, R145, H146, Y161, L182, L185,; also recorded: Site IIIA, P384, L387, I388, N391, F403, L407, R410, Y411, K414, | 

Compound | Binding site of the Drug-Albumin Complex (site heading the list of contacting residues) [1, 3] | also measured
Cc1ccc(C)c(OCCCC(C)(C)C(=O)O)c1 [Gemfrirozil] | Site IB, L115, V116, R117, F134, L135, Y138, L139, I142, R145,; also recorded: Site IIIA, L387, R410, Y411, K414, V415, V418, L423, V426, S427, | 
CCc1nn(CCCN2CCN(c3cccc(Cl)c3)CC2)c(=O)n1CCOc1ccccc1 [Nefazodone] |  | Albumin Binding Location [1]: IIIA
CCCc1nc2c(C)cc(-c3nc4ccccc4n3C)cc2n1Cc1ccc(-c2ccccc2C(=O)O)cc1 [Telmisartan] | Site IB, L115, V116, R117, P118, M123, F134, K137, Y138, E141, | 
O=C1NC(=O)C(c2ccccc2)(c2ccccc2)N1 [Phenytoin] |  | Albumin Binding Location [1]: IIA
Cc1ccc(Cl)c(Nc2ccccc2C(=O)O)c1Cl [Meclofenamic Acid] | Site IIIA, P384, L387, I388, N391, C392, F403, L407, R410, Y411, | 
O=C(Oc1ccccc1C(=O)O)c1ccccc1O [Salsalate] | Site IIIB, F509, I513, R521, K524, K525, A528, M548, F551, A552, | 
Hemin | Site IB, R114, L115, V116, R117, P118, M123, F134, L135, Y138, | 
COc1cc(C(=O)NS(=O)(=O)c2ccccc2C)ccc1Cc1cn(C)c2ccc(NC(=O)OC3CCCC3)cc12 [Zafirlukast] | Site IIA, Y150, E153, K195, L198, K199, S202, F211, W214, A215, | 
COc1ccc2cc(CC(=O)O)ccc2c1 [6-MNA] | Site IB, R114, L115, R117, M123, L135, Y138, L139, I142, H146,; also recorded: Site IIA-IIBR209, A210, A213, W214, D324, L327, G328, L331,; also recorded: Site IIIA, L387, I388, N391, C392, F403, L407, R410, Y411, K414, | 
O=C(c1ccccc1)c1ccc2n1CC[C@H]2C(=O)O [R-Ketorolac] | Site IB, R117, Y138, I142, H146, F149, L154, F157, Y161, L182, | 
Cc1noc(NS(=O)(=O)c2ccc(N)cc2)c1C [Sulfisoxazole] |  | Binding site of the Drug-Albumin Complex (site heading the list of contacting residues) [1]: Site IB, L115, V116, R117, P118, M123, Y138, I142, Y161, L182,
COc1cc([C@@H]2c3cc4c(cc3[C@@H](O[C@@H]3O[C@@H]5CO[C@@H](c6cccs6)O[C@H]5[C@H](O)[C@H]3O)[C@H]3COC(=O)[C@H]23)OCO4)cc(OC)c1O [Teniposide] | Site IB, L115, V116, R117, P118, A126, F134, K137, Y138, E141, | 
CCOc1nc2cccc(C(=O)OC(C)OC(=O)OC3CCCCC3)c2n1Cc1ccc(-c2ccccc2-c2nn[nH]n2)cc1 (stereo not shown) [Candesartan Cilexitil] | Site II-III, K195, L198, K199, S202, L203, F206, G207, A210, F211,; also recorded: Site IIIA, P384, L387, I388, N391, C392, F395, F403, L407, Y411,; also recorded: Site IIIA-IIIB, L398, Y401, K402, N405, A406, V409, R410, L529, | 
CC1(C)S[C@@H]2[C@H](NC(=O)C(c3ccccc3)S(=O)(=O)O)C(=O)N2[C@H]1C(=O)O (stereo partly shown) [Sulbenicillin] | Site IIA, Y150, K195, K199, W214, R218, L219, R222, L238, H242, | 
O=C(O)CCNC(=O)c1ccc(/N=N/c2ccc(O)c(C(=O)O)c2)cc1 [Balsalazide] | Site IIA-IIIB, S401, K402, N405, A406, L407, V409, R410, K413, | 
CC1=C(/C=C/C(C)=C/C=C/C(C)=C/C(=O)O)C(C)(C)CCC1 [Tertinoin] |  | Albumin Binding Location [1]: IIIA
CC(NC(C)(C)C)C(=O)c1cccc(Cl)c1 (stereo not shown) [Bupropion] |  | Albumin Binding Location [1]: IIA, IIIA
CC(=O)[C@]1(O)Cc2c(O)c3c(c(O)c2[C@@H](O[C@H]2C[C@H](N)[C@H](O)[C@H](C)O2)C1)C(=O)c1ccccc1C3=O [Idarubicin] | Site IB, F036, F037, L115, V116, R117, P118, V122, M123, A126, | 
COc1ccccc1OCCNCC(O)COc1cccc2[nH]c3ccccc3c12 (stereo not shown) [Carvedilol] | Site IIIA, P384, L387, I388, N391, F403, L407, R410, Y411, K414, | 
CN(C/C=C/C#CC(C)(C)C)Cc1cccc2ccccc12 [Terbinafine] |  | Albumin Binding Location [1]: IIIA
CCCNC(=O)NS(=O)(=O)c1ccc(Cl)cc1 [Chlorpropamide] |  | Albumin Binding Location [1]: IIA, IIIA
